PubChem BioAssay (NCI)
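How tested: cells in 96-well plates exposed to compound for 48 hours at five concentrations. GI50 = concentration required for 50% inhibition of growth. Definition used: TGI = concentration required for complete inhibition of growth.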

Assays:
Assay in all cases: DTP human tumour cell line panel, 48 h
SF-295 CNS = test system: SF-295 CNS
NCI-H23 lung = test system: NCI-H23 lung
K-562 leukemia = test system: K-562 leukemia
A549 NSCLC = test system: A549 NSCLC
HCC-2998 colon = test system: HCC-2998 colon
HT29 colon = test system: HT29 colon
SF-268 CNS = test system: SF-268 CNS
MCF7 breast = test system: MCF7 breast
HOP-92 NSCLC = test system: HOP-92 NSCLC
786-0 renal = test system: 786-0 renal

SMILES | GI50 (SF-295 CNS) [µM] | TGI (SF-295 CNS) [µM] | GI50 (NCI-H23 lung) [µM] | TGI (NCI-H23 lung) [µM] | GI50 (K-562 leukemia) [µM] | TGI (K-562 leukemia) [µM] | GI50 (A549 NSCLC) [µM] | TGI (A549 NSCLC) [µM] | GI50 (HCC-2998 colon) [µM] | TGI (HCC-2998 colon) [µM] | GI50 (HT29 colon) [µM] | TGI (HT29 colon) [µM] | GI50 (SF-268 CNS) [µM] | TGI (SF-268 CNS) [µM] | GI50 (MCF7 breast) [µM] | TGI (MCF7 breast) [µM] | GI50 (HOP-92 NSCLC) [µM] | TGI (HOP-92 NSCLC) [µM] | GI50 (786-0 renal) [µM] | TGI (786-0 renal) [µM]
C=C(C)[C@@H]1CC[C@]2(C)[C@H](C(=O)C=C3[C@@H]4C[C@](C)(C(=O)N5CCN(C)CC5)CC[C@]4(C)CC[C@]32C)[C@@]1(C)CCC#N | 7.75 | 15.2 | 6.97 | 14.3 | 2.75 | 9.55 | 7.12 | 14.5 | 6.72 | 13.6 | 2.38 | 8.49 | 7.26 | 15.2 | 5.45 | 12.5 | 3.25 | 10.2 | 7.03 | 13.7
CC(C)CCOc1ccc(-c2n[nH]c(C(F)(F)F)c2-c2cncc(C#N)c2)c(O)c1 | 2.33 | 6.7 | 1.77 | 7.59 | 1.87 | > 100 | 2.24 | 12 | 3.05 | 24.3 | 2.92 | 14.1 | 4.18 | > 100 | 2.23 | > 100 | 0.519 | 3.33 | 2.96 | 13.1
COc1ccc(Nn2c(SCC(=O)Nc3nc(-c4ccc(Cl)cc4)cs3)nc(C)c2C)cc1 | 2.18 | > 100 | 1.53 | > 100 | 1.58 | > 100 | 3.32 | > 100 | 3.07 | 9.91 | 4.61 | 50.4 | 2.81 | > 100 | 3.36 | 25.5 | 2.42 | 7.8 | 3.46 | 18.2
OCCCN=NNc1ccc(-c2nc3ccccc3[nH]2)cc1 | 2.87 | 7.58 | – | – | 16.6 | 84.9 | 2.62 | > 100 | – | – | – | – | 6.16 | 32.1 | 0.0891 | 2.4 | 14.8 | 66.5 | 17 | 46.7
CCCCCC(O)C1C(=O)OC(C)C(O)/C=C/C=C/C=C/C=C\C=C(\C)C(O)CC(O)CC(O)CC(O)CC(O)CC(O)CC1O (stereo not drawn) | > 100 | > 100 | > 100 | > 100 | > 100 | > 100 | > 100 | > 100 | > 100 | > 100 | > 100 | > 100 | > 100 | > 100 | > 100 | > 100 | > 100 | > 100 | > 100 | > 100
COc1ccc(-c2ccc(/C=N/n3c(COc4ccccc4Cl)nn(CN4CCN(C)CC4)c3=S)o2)c([N+](=O)[O-])c1 | – | – | 16.3 | 31 | – | – | 14.1 | 36.7 | 14.5 | 27.7 | 23.5 | 55.9 | 17.5 | 45.1 | 12.9 | 33.8 | 21 | 70.7 | 17.4 | 39.3
CC(C)[C@@]12C[C@@H](OC(=O)[C@H]3CO3)[C@@](C)(O1)[C@@H]1CC[C@@H](C)[C@H]1[C@@H]2OC(=O)/C=C/c1ccccc1 | 15.3 | 35.5 | 19.7 | > 100 | 18.5 | > 100 | 16.7 | 54.6 | 17.8 | 41.5 | 27.6 | > 100 | 0.777 | > 81.2 | 9.33 | > 100 | 9.22 | 27.1 | 3.55 | 22
COc1cc2c(cc1OCCOS(C)(=O)=O)N=C[C@@H]1CCCN1C2=O | – | 75.4 | 12.2 | 25.2 | – | – | – | > 100 | – | > 100 | – | > 100 | – | > 100 | – | > 100 | – | 50.6 | 17 | 30.7
CCCCCCCC/C=C/CCCCCCCCC1=NCCN1CCO | 1.93 | 4.05 | 10.9 | 28.3 | – | – | 2.67 | 7.41 | 14.2 | 34.2 | 2.16 | 5.21 | 3.66 | 16.2 | 1.77 | 4.02 | 0.976 | 3.4 | 5.49 | 28
COc1cc(C(=O)/C=C/c2cc(C(=O)c3cc(OC)c(OC)c(OC)c3)ccc2OC)ccc1N | 2.3 | 17.4 | 1.42 | 4.1 | 0.386 | > 100 | 3.2 | 29 | 1.27 | 2.64 | 0.422 | 1.56 | – | – | 0.322 | 2.28 | 2.94 | > 100 | 1.54 | 4.08
COc1cc(NCCCCN=C(N)NC(N)=NC(C)C)c2ncccc2c1 | 23 | > 91.1 | 0.984 | 10.1 | 3.65 | 25.8 | 35.4 | > 100 | 2.52 | 14.2 | 7.49 | 32.2 | 3.83 | 17.9 | 0.0516 | 0.327 | 1.28 | 12.5 | 31 | > 100
O=P(O)(O)c1ccccc1 (tested in a mixture with another compound) | – | > 100 | – | > 100 | – | > 100 | – | > 100 | – | > 100 | – | > 100 | – | > 100 | – | > 100 | – | > 100 | – | > 100
NC(=NCCCOc1ccc(Cl)cc1)Nc1ccc(Cl)cc1 | 2.42 | 6.9 | 2.31 | 7.43 | 1.85 | 4.32 | 3.48 | 12.7 | 1.5 | 3.12 | 2.12 | 5.95 | 3.1 | 13 | 2.2 | 7.35 | 1.51 | 5.53 | 2.15 | 6.67
C/C(=N\NC(=O)c1ccncc1)c1ccc2ccccc2c1O | – | 20.7 | – | > 51 | – | > 100 | – | > 100 | – | 53.8 | – | > 58.6 | – | 40.8 | – | 14 | – | > 100 | – | 48.4
Cc1nc2sccn2c(=O)c1CCN1CCC(=C(c2ccc(F)cc2)c2ccc(F)cc2)CC1 | 13 | 28.7 | 13.2 | 29 | 5.18 | 26.2 | 12.9 | 29.1 | 12.3 | 27.5 | 5.37 | 19 | 15.9 | 32.8 | 6.88 | 23 | 5.16 | 19.2 | 12 | 27.8
N#Cc1c(-c2ccc(Cl)cc2)n(O)c2ccccc12 | 2.33 | 6.09 | 2.02 | 6.9 | 0.949 | > 100 | 2.6 | 11.9 | 3 | 8.01 | 4.84 | 20.9 | 2.6 | 25.5 | 2.67 | > 100 | 1.02 | 3.5 | 2.24 | 7.04
O=C1C(Br)=CC2(C=C1Br)CCN=c1c2c(O)c2nc3ccccc3c3ccnc1c23 | 5.97 | 19.3 | 1.91 | 8.41 | 1.8 | 7.9 | 6.69 | 28.4 | 9.78 | 22.3 | 1.07 | 3.02 | 0.672 | 1.91 | 0.765 | 2.69 | 0.593 | 2.38 | 0.987 | 2.37
O=C(O)C1C(C(=O)Nc2ccc3c(c2)Cc2ccccc2-3)C2(Cl)C(Cl)=C(Cl)C1(Cl)C2(Cl)Cl (stereo not drawn) | – | > 100 | – | 31.3 | – | 13.5 | – | > 100 | – | 34.8 | – | 41.7 | – | 64.5 | – | 62.2 | – | 57.3 | – | > 100
CCn1c2c(n(CC)c1=S)-c1c(n(CC)c(=S)n1CC)SSSS2 | – | > 80.3 | – | 22.3 | – | 8.97 | – | 68.4 | – | 49.4 | – | 29.2 | – | 44.4 | – | 40.7 | – | 9.71 | – | 28.6
COc1ccc(C(=O)c2ccc(OC)c(OC)c2OC)cc1 | 0.956 | 5.07 | 3.32 | > 100 | 0.351 | > 100 | 2.01 | > 100 | 2.76 | > 100 | 0.465 | 33.5 | 5.2 | > 100 | 0.697 | > 100 | 5.4 | > 100 | 9.85 | > 100
NC(N)=NS(=O)(=O)c1ccc(NCc2c3ccccc3nc3ccccc23)cc1 | – | 22 | – | 13.2 | – | > 93.6 | – | > 100 | – | 66.1 | – | > 100 | – | 23.1 | – | 17.5 | – | 9.01 | – | 9.65
CC(C)(C)[Si](C)(C)OCC1OC(n2cnc3c(NC(=O)c4ccccc4)ncnc32)CC1O (stereo not drawn) | – | 44.2 | – | > 100 | – | 48.2 | – | > 100 | – | 88.6 | – | > 100 | – | > 100 | – | > 100 | – | 55.2 | – | 38.6
C1CCN(CCC2CCCCN2)CC1 (stereo not drawn) | – | > 100 | – | > 100 | – | > 100 | – | > 100 | – | – | – | > 100 | – | > 100 | – | > 100 | – | > 100 | – | > 100
CC(=O)c1ccc(NC(=O)CSc2nnc(-c3cc(-c4ccc(C)cc4)nc4ccccc34)o2)cc1 | 2.18 | 6.08 | 3.73 | 61.3 | 3.15 | > 100 | 3.01 | > 100 | > 100 | > 100 | – | – | 3.12 | > 100 | 2.69 | > 100 | 2.59 | 6.3 | 1.61 | 3.51
Cc1ccc(C2NC(=S)NC3=C2CCOc2c3ccc3ccccc23)cc1 (stereo not drawn) | – | – | > 100 | > 100 | 4.36 | > 100 | > 100 | > 100 | 10.8 | > 100 | 8 | > 100 | 96 | > 100 | 32.4 | > 100 | 39.8 | > 100 | > 100 | > 100
CCN(CC)c1cc(/C=C/c2ccc(OC)c(OC)c2)nc2cc(F)c(F)cc12 | 2.03 | 4.63 | 4.06 | 14 | – | – | 30 | > 100 | 70.6 | > 100 | – | – | 3.15 | 11.4 | 15.9 | > 100 | 1.68 | 4.74 | 1.98 | 4.77
CS(=O)CCCCCN=C=S (stereo not drawn) | 17.1 | 31.4 | 4.21 | 24.5 | – | – | 7.52 | 24.2 | 13.9 | 28.8 | 3.47 | 11.1 | 4.06 | 17.4 | 2.3 | 13.2 | 3.55 | 9.52 | 5.68 | 19.5
COc1ccc(/C(Cl)=C(\C=O)c2ccc([N+](=O)[O-])cc2)cc1OC | – | 44.2 | – | 15.8 | – | > 93.3 | – | > 100 | – | – | – | > 30.5 | – | 29.4 | – | 36.8 | – | 24.9 | – | 20.1
CCOC(=O)c1sc2nc3sc(N=Nc4ccc(Cl)cc4)c(O)n3c(=S)c2c1C | 31 | > 100 | 14.2 | 42.4 | > 100 | > 100 | 35 | > 100 | – | – | 36.9 | > 100 | 19.7 | 82 | 21.4 | > 100 | 7.47 | 45.8 | 32.4 | > 100
